Results published in patent US6713444B1 (priority 1999, dated 2004).
Ends that are not written are not given here.

What was measured:
Bttxs = conditions: cited from earlier work
BttxB = BttxB (Clostridium botulinum, UniProt P10844); assay type: biochemical
[1] = rat, in vivo, ip

Sequence of BttxB (P10844 2-441 limits assumed): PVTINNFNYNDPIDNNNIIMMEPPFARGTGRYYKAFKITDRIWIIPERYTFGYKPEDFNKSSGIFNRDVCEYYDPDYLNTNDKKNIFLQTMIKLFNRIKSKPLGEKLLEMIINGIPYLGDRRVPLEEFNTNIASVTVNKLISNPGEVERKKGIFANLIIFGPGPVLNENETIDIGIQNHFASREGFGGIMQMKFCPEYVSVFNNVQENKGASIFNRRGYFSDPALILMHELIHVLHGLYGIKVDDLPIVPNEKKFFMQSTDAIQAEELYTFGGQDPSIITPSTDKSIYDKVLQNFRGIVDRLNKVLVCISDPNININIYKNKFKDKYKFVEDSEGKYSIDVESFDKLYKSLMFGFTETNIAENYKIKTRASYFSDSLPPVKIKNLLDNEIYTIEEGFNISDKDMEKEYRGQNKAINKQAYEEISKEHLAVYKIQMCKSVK

Molecule: C[C@H](CS)C(=O)N1CCC[C@H]1C(=O)O [captopril]
- inhibition of Bttxs (in words) (Bttxs): not effective inhibitors

Molecule: CC(C)C[C@H](NP(=O)(O)O[C@@H]1O[C@@H](C)[C@H](O)[C@@H](O)[C@H]1O)C(=O)N[C@@H](Cc1c[nH]c2ccccc12)C(=O)O [phosphoramidon]
- inhibition of Bttxs (in words) (Bttxs): not effective inhibitors

Molecule: AlaGlyArgGlyLysGlnGlyGlyLysValArgAlaLysAlaLysThrArgSerSerArgAlaGlyLeuGlnPheProValGlyArgValHisArgLeuLeuArglys [Peptide 36]
- effectiveness as inhibitor of BttxB activity relative to B-I (BttxB): about 50%
- substrate of BttxB (BttxB): not substrates

Molecule: TRSRAKGLQFPGLLVHRKGNY [OSP]
- inhibition of BttxB endoprotease activity (in words) (BttxB): inhibition

Molecule: CC(C)C[C@H](NC(=O)CNC(=O)[C@H](C)NC(=O)[C@H](CCCNC(=N)N)NC(=O)[C@H](CO)NC(=O)[C@H](CO)NC(=O)[C@H](CCCNC(=N)N)NC(=O)[C@@H](NC(=O)[C@H](CCCCN)NC(=O)[C@H](C)NC(=O)[C@H](CCCCN)NC(=O)[C@H](C)NC(=O)[C@H](CCCNC(=N)N)NC(=O)[C@@H](NC(=O)[C@H](CCCCN)NC(=O)CNC(=O)CNC(=O)[C@H](CCC(N)=O)NC(=O)[C@H](CCCCN)NC(=O)CNC(=O)[C@H](CCCNC(=N)N)NC(=O)CNC(=O)[C@H](C)N)C(C)C)[C@@H](C)O)C(=O)N[C@@H](CCC(N)=O)C(=O)N[C@@H](Cc1ccccc1)C(=O)N1CCC[C@H]1C(=O)N[C@H](C(=O)NCC(=O)N[C@@H](CCCNC(=N)N)C(=O)N[C@H](C(=O)N[C@@H](Cc1c[nH]cn1)C(=O)N[C@@H](CCCNC(=N)N)C(=O)N[C@@H](CC(C)C)C(=O)N[C@@H](CC(C)C)C(=O)N[C@@H](CCCNC(=N)N)C(=O)N[C@@H](CCCCN)C(=O)NCC(=O)N[C@@H](CC(N)=O)C(=O)N[C@@H](Cc1ccc(O)cc1)C(=O)O)C(C)C)C(C)C [Buforin I]
- inhibition of BttxB endoprotease activity (in words) (BttxB): dose-dependency and competitively inhibits
- substrate of BttxB (BttxB): not to be a substrate
- Plateau (time to reach maximal-plateau level) [1]: ≤ 40 min
- time the maximal-plateau level was maintained [1]: up to 4 h
- time to reach ½ the absorbed maximal value [1]: 7.7 min

Molecule: ThrArgSerSerArgAlaGlyLeuGlnPheProValGlyArgValHisArgLerLeuArgLysGlyAsnTyr [Peptide 24]
- effectiveness as inhibitor of BttxB activity relative to B-I (BttxB): about 25%
- substrate of BttxB (BttxB): not substrates

Molecule: Substance P [reference compound]
- substrate of BttxB (BttxB): not a substrate
